Read-outs that look alike come from different tables or passages of the source.
Molecular target: T1, apelin receptor (APJ) (Homo sapiens, UniProt P35414)
T1 sequence (P35414 1-380): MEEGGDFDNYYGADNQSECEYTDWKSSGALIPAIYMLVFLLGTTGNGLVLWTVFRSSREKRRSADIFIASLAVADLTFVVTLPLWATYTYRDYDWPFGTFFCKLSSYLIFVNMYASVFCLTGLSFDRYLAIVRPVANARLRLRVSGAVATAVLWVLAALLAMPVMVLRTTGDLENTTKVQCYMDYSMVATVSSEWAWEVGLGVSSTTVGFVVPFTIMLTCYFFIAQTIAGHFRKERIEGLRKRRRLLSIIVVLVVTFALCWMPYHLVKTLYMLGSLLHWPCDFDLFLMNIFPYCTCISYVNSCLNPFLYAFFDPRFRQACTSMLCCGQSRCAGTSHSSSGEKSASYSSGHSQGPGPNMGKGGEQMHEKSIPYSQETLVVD
Test: In vitro apelin agonist activity (methods of Giddings et al., Apelin-13 as positive control)
Format: cell-based
Conditions: in vitro apelin agonist activity, methods of Giddings et al., Apelin-13 as positive control
Description: Characterization of the Apelin Agonist Activity of the Compounds
1:39-47, the contents of which are hereby incorporated by reference in its entirety. Using the methods described in Giddings et al. and Apelin-13 as a positive control.

SMILES	EC50 (read-out: EC50 (nM) Ave)	EC50 (EC50 (nM) Ave)
O=C(O)C[C@H](CCN1CCOCC1)NC(=O)c1cc(-c2ccccc2C(F)(F)F)n(C2CCCC2)n1 [compound 486, (3S)-3-({1-cyclopentyl-5-[2-(trifluoromethyl)phenyl]-1H-pyrazol-3-yl}formamido)-5-(morpholin-4-yl)pentanoic acid]	931 nM	
CCc1cc(F)ccc1-c1cc(C(=O)N[C@@H](CCN2CCCCC2)CC(=O)NC2CCC2)nn1C1CCCC1 [compound 399, (3S)-N-cyclobutyl-3-{[1-cyclopentyl-5-(2-ethyl-4-fluorophenyl)-1H-pyrazol-3-yl]formamido}-5-(piperidin-1-yl)pentanamide]	264 nM	
O=C(O)C[C@H](CCN1CC(F)(F)C(F)(F)C1)NC(=O)c1cc(-c2ccccc2C(F)(F)F)n(C2CCCC2)n1 [compound 574, (3S)-3-({1-cyclopentyl-5-[2-(trifluoromethyl)phenyl]-1H-pyrazol-3-yl}formamido)-5-(3,3,4,4-tetrafluoropyrrolidin-1-yl)pentanoic acid]	981 nM	
O=C(C[C@H](CN1CCC(F)(F)C1)NC(=O)c1cc(-c2ccccc2C(F)(F)F)n(C2CCCC2)n1)NC1CCC1 [compound 523, (3R)-N-cyclobutyl-3-({1-cyclopentyl-5-[2-(trifluoromethyl)phenyl]-1H-pyrazol-3-yl}formamido)-4-(3,3-difluoropyrrolidin-1-yl)butanamide]		1210 nM
O=C(O)C[C@H](CCN1CC[C@H](F)C1)NC(=O)c1cc(-c2ccccc2C(F)(F)F)n(C2CCCC2)n1 [compound 585, (3S)-3-({1-cyclopentyl-5-[2-(trifluoromethyl)phenyl]-1H-pyrazol-3-yl}formamido)-5-[(3S)-3-fluoropyrrolidin-1-yl]pentanoic acid]	654 nM	
COc1cccc(OC)c1-c1cc(C(=O)N[C@@H](CCN2C3CCC2CC3)CC(=O)OC(C)(C)C)nn1C1CCCC1 [compound 320, tert-butyl (3S)-5-{7-azabicyclo[2.2.]heptan-7-yl}-3-{[1-cyclopentyl-5-(2,6-dimethoxyphenyl)-1H-pyrazol-3-yl]formamido}pentanoate]	> 10000 nM	
O=C(O)C[C@@H](NC(=O)c1cc(-c2ccccc2C(F)(F)F)n(C2CCCC2)n1)C(=O)Nc1ccc(F)cc1 [compound 560, (3R)-3-({1-cyclopentyl-5-[2-(trifluoromethyl)phenyl]-1H-pyrazol-3-yl}formamido)-3-[(4-fluorophenyl)carbamoyl]propanoic acid]	738 nM	
CSc1ccccc1-c1cc(C(=O)N[C@@H](CCN2CCCCC2)CC(=O)NC2CCC2)nn1C1CCCC1 [compound 360, (3S)-N-cyclobutyl-3-({1-cyclopentyl-5-[2-(methylsulfanyl)phenyl]-1H-pyrazol-3-yl]formamido)-5-(piperidin-1-yl)pentanamide]	376 nM	
O=C(N[C@@H](CC1CCCCC1)C(=O)O)c1cc(-c2ccccc2C(F)(F)F)n(C2CCCC2)n1 [compound 577, (2S)-3-cyclohexyl-2-({1-cyclopentyl-5-[2-(trifluoromethyl)phenyl]-1H-pyrazol-3-yl}formamido)propanoic acid]	1030 nM	
COc1cccc(OC)c1-c1cc(C(=O)N[C@@H](CCN2CCCCC2)CC(=O)NC(C)(C)C)nn1C1CCCC1 [compound 333, (3S)-N-tert-butyl-3-{[1-cyclopentyl-5-(2,6-dimethoxyphenyl)-1H-pyrazol-3-yl]formamido}-5-(piperidin-1-yl)pentanamide]	2530 nM	
COc1cccc(OC)c1-c1cc(C(=O)N[C@@H](CCc2ccccc2)C(=O)NCc2nnn[nH]2)nn1C1CCCC1 [compound 387, (2S)-2-{[1-cyclopentyl-5-(2,6-dimethoxyphenyl)-1H-pyrazol-3-yl]formamido}-4-phenyl-N-(1H-1,2,3,4-tetrazol-5-ylmethyl)butanamide]	8720 nM	
COc1cccc(Cl)c1-c1cc(C(=O)N[C@@H](CCN2CCCCC2)CC(=O)NC2CCC2)nn1C1CCCC1 [compound 370, (3S)-3-{[5-(2-chloro-6-methoxyphenyl)-1-cyclopentyl-1H-pyrazol-3-yl]formamido}-N-cyclobutyl-5-(piperidin-1-yl)pentanamide]	1030 nM	
O=C(C[C@H](CCN1CCCCC1)NC(=O)c1cc(-c2cscn2)n(C2CCCC2)n1)NC1CCC1 [compound 378, (3S)-N-cyclobutyl-3-{[1-cyclopentyl-5-(1,3-thiazol-4-yl)-1H-pyrazol-3-yl]formamido}-5-(piperidin-1-yl)pentanamide]	9390 nM	
O=C(O)C[C@H](CCC1CCCCC1)NC(=O)c1cc(-c2ccccc2C(F)(F)F)n(C2CCCC2)n1 [compound 484, (3S)-5-cyclohexyl-3-({1-cyclopentyl-5-[2-(trifluoromethyl)phenyl]-1H-pyrazol-3-yl}formamido)pentanoic acid]	1520 nM	
COc1cccc(OC)c1-c1cc(C(=O)N[C@H](CCNC2CCC2)CCN2CCCCC2)nn1C1CCCC1 [compound 398, N-[(3R)-1-(cyclobutylamino)-5-(piperidin-1-yl)pentan-3-yl]-1-cyclopentyl-5-(2,6-dimethoxyphenyl)-1H-pyrazole-3-carboxamide]	> 10000 nM	

Second part, led by results:

EC50 (read-out: EC50 (nM) Ave)	SMILES	EC50 (EC50 (nM) Ave)
114 nM	COc1cccc(OC)c1-c1cc(C(=O)N[C@H](CC(=O)NC2CCC2)Cc2ccccc2)nn1CC(C)C [compound 321, (3S)-N-cyclobutyl-3-{[5-(2,6-dimethoxyphenyl)-1-(2-methylpropyl)-1H-pyrazol-3-yl]formamido}-4-phenylbutanamide]	
46 nM	CC(F)(F)c1ccccc1-c1cc(C(=O)N[C@@H](CCN2CCCCC2)CC(=O)NC2CCC2)nn1C1CCCC1 [compound 400, (3S)-N-cyclobutyl-3-({1-cyclopentyl-5-(2-(1,1-difluoroethyl)phenyl]-1H-pyrazol-3-yl]formamido)-5-(piperidin-1-yl)pentanamide]	
197 nM	COc1cccc(OC)c1-c1cc(C(=O)N[C@@H](CCN2CC3(CCC3)C2)CC(=O)NC2CCC2)nn1C1CCCC1 [compound 349]	
36 nM	COc1cccc(OC)c1-c1cc(C(=O)N[C@@H](CCc2ccc(F)cc2)CC(=O)Nc2nccs2)nn1C1CCCC1 [compound 417, (3S)-3-{[1-cyclopentyl-5-(2,6-dimethoxyphenyl)-1H-pyrazol-3-yl]formamido}-5-(4-fluorophenyl)-N-(1,3-thiazol-2-yl)pentanamide]	
255 nM	O=C(O)C[C@H](CCNC1CC(F)(F)C1)NC(=O)c1cc(-c2ccccc2C(F)(F)F)n(C2CCCC2)n1 [compound 548, (3S)-3-({1-cyclopentyl-5-[2-(trifluoromethyl)phenyl]-1H-pyrazol-3-yl}formamido)-5-[(3,3-difluorocyclobutyl)amino]pentanoic acid]	
165 nM	CN(C(=O)C[C@H](CCN1CCOCC1)NC(=O)c1cc(-c2ccccc2C(F)(F)F)n(C2CCCC2)n1)c1nccs1 [compound 495, (3S)-3-({1-cyclopentyl-5-[2-(trifluoromethyl)phenyl]-1H-pyrazol-3-yl}formamido)-N-methyl-5-(morpholin-4-yl)-N-(1,3-thiazol-2-yl)pentanamide]	
10.3 nM	CN(CC[C@@H](CC(=O)NC1CCC1)NC(=O)c1cc(-c2ccccc2C(F)(F)F)n(C2CCCC2)n1)C1CCCC1 [compound 490, (3S)-N-cyclobutyl-5-[cyc1opentyl(methyl)amino]-3-({1-cyclopentyl-5-[2(trifluoromethyl)phenyl]-1H-pyrazol-3-yl}formamido)pentanamide]	
79 nM	Cc1cnn(CC[C@@H](CC(=O)N(C)c2nccs2)NC(=O)c2cc(-c3ccccc3C(F)(F)F)n(C3CCCC3)n2)c1 [compound 500, (3S)-3-({1-cyclopentyl-5-[2-(trifluoromethyl)phenyl]-1H-pyrazol-3-yl}formamido)-N-methyl-5-(4-methyl-1H-pyrazol-1-yl)-N-(1,3-thiazol-2-yl)pentanamide]	
44 nM	CC(F)(F)c1ccccc1-c1cc(C(=O)N[C@@H](CCN2C[C@H](F)[C@@H](F)C2)CC(=O)O)nn1C1CCCC1 (stereo in doubt) [compound 594, (3S)-3-({1-cyclopentyl-5-[2-(1,1-difluoroethyl)phenyl]-1H-pyrazol-3-yl}formamido)-5-[trans-3,4-difluoropyrrolidin-1-yl]pentanoic acid]	
69 nM	CC1CCC(F)(F)CN1CC[C@@H](CC(=O)O)NC(=O)c1cc(-c2ccccc2C(C)(F)F)n(C2CCCC2)n1 (stereo partly drawn) [compound 607, (3S)-3-({1-cyclopentyl-5-[2-(1,1-difluoroethyl)phenyl]-1H-pyrazol-3-yl}formamido)-5-(5,5-difluoro-2-methylpiperidin-1-yl)pentanoic acid]	
58 nM	Cc1cnc(NC(=O)C[C@H](CCN2CCC(F)(F)CC2)NC(=O)c2cc(-c3ccccc3C(F)(F)F)n(C3CCCC3)n2)s1 [compound 436, (3S)-3-({1-cyclopentyl-5-[2-(trifluoromethyl)phenyl]-1H-pyrazol-3-yl]formamido)-5-(4,4-difluoropiperidin-1-yl)-N-(5-methyl-1,3-thiazol-2-yl)pentanamide]	
235 nM	COc1cccc(OC)c1-c1cc(C(=O)N[C@@H](CCN2CCCCC2)Cc2nnn[nH]2)nn1C1CCCC1 [compound 364, 1-cyclopentyl-5-(2,6-dimethoxyphenyl)-N-[(2S)-4-(piperidin-1-yl)-1-(1H-1,2,3,4-tetrazol-5-yl)butan-2-yl]-1H-pyrazole-3-carboxamide]	

— patent US11535630B2, “Apelin receptor (APJ) agonists and uses thereof” (Research Triangle Institute, priority 2015, dated 2022)
